Like-named read-outs stand apart in the source and are kept apart here.
Key:
[1] = tested on: MDA-MB-231 cells; test: Soft agar colony formation assay; assay type: cell-based, human; settings: LLL12 1 μM or 5 μM, two weeks
Method: A base 0.6% agar gel with 10% FBS in DMEM was prepared and added to the wells of a 6-well culture dish. […] The cells were maintained at 37° C. and allowed to grow for two weeks. The colonies were stained using MTT dye (100 μL per well). Pictures of the colonies were taken using a Leica MZ 16FA inverted microscope (Leica Microsystems) with a 7.4 Slider Camera (Diagnostic Instruments Inc.). The colonies were scored by counting and numbers were normalized as a percentage of colonies formed in DMSO.

[2] = target: T1, C-RAF (Homo sapiens, UniProt P04049); test: Kinase profiler assay; assay type: biochemical; settings: 10 concentrations, 100 μM highest
T1 construct: purchased Millipore UK Limited (Dundee, UK) or Reaction Biology Corp. (Malvern, Pa.)
T1 sequence (P04049 whole entry): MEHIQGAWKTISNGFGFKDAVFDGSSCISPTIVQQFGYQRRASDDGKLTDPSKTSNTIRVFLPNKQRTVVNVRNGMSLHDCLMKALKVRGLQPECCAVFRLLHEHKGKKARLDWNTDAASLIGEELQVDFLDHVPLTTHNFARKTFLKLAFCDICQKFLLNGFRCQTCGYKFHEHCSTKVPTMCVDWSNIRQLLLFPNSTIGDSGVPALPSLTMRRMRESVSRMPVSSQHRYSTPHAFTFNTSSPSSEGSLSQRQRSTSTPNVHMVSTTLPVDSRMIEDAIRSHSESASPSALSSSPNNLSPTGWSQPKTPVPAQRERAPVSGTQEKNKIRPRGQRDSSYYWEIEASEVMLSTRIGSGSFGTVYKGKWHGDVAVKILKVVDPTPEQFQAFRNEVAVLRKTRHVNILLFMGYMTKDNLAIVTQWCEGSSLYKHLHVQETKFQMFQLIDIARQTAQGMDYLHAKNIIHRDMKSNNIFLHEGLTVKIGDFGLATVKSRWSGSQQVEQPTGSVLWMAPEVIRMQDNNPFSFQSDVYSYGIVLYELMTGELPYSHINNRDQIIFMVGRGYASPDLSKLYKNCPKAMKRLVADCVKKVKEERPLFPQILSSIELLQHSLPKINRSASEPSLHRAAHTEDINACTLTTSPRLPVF

[3] = target: T2, Erb B2/H ER2 (Homo sapiens, UniProt P04626); test: Kinase profiler assay; assay type: biochemical; settings: 10 concentrations, 100 μM highest
T2 construct: purchased Millipore UK Limited (Dundee, UK) or Reaction Biology Corp. (Malvern, Pa.)

[4] = target: T3, Fes (Homo sapiens, UniProt P07332); test: Kinase profiler assay; assay type: biochemical; settings: 10 concentrations, 100 μM highest
T3 construct: purchased Millipore UK Limited (Dundee, UK) or Reaction Biology Corp. (Malvern, Pa.)

[5] = target: T4, P13K (P110a/85a) (Homo sapiens, UniProt P42336); test: Kinase profiler assay; assay type: biochemical; settings: 10 concentrations, 100 μM highest
T4 construct: purchased Millipore UK Limited (Dundee, UK) or Reaction Biology Corp. (Malvern, Pa.)

[6] = target: T5, mTOR (Homo sapiens, UniProt P42345); test: Kinase profiler assay; assay type: biochemical; settings: 10 concentrations, 100 μM highest
T5 construct: purchased Millipore UK Limited (Dundee, UK) or Reaction Biology Corp. (Malvern, Pa.)

[7] = target: T6, P13K (P110b/85a) (Homo sapiens, UniProt P42338); test: Kinase profiler assay; assay type: biochemical; settings: 10 concentrations, 100 μM highest
T6 construct: purchased Millipore UK Limited (Dundee, UK) or Reaction Biology Corp. (Malvern, Pa.)
T6 sequence (P42338 whole entry, stated change not applied): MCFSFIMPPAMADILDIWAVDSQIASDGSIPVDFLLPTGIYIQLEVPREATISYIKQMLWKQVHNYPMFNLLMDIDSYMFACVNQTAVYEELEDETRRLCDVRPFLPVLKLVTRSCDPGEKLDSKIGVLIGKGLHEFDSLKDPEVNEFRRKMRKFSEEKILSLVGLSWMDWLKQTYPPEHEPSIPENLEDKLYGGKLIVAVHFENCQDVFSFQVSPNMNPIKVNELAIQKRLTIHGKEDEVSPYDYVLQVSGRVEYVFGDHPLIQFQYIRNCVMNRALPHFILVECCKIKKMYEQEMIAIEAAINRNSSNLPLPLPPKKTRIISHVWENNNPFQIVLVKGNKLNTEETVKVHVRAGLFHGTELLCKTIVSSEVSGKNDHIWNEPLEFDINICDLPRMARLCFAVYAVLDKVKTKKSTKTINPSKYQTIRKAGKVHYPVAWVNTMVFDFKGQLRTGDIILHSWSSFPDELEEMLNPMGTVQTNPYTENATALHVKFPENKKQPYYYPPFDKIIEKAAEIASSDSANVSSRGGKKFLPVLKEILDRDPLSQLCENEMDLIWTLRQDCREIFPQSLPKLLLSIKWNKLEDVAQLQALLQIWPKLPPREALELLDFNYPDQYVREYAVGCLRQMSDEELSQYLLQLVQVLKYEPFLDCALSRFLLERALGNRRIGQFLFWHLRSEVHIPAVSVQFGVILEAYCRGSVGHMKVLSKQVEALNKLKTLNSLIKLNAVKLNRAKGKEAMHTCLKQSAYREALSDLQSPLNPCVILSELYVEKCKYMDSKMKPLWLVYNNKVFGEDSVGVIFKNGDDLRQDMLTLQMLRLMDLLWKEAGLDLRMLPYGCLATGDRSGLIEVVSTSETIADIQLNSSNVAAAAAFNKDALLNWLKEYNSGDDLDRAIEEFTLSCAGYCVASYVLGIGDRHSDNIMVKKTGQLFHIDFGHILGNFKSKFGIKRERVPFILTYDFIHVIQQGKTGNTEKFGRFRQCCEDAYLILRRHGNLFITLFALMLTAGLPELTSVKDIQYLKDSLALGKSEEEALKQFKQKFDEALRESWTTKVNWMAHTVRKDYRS
T6 sequence (P27986 2-724 partner): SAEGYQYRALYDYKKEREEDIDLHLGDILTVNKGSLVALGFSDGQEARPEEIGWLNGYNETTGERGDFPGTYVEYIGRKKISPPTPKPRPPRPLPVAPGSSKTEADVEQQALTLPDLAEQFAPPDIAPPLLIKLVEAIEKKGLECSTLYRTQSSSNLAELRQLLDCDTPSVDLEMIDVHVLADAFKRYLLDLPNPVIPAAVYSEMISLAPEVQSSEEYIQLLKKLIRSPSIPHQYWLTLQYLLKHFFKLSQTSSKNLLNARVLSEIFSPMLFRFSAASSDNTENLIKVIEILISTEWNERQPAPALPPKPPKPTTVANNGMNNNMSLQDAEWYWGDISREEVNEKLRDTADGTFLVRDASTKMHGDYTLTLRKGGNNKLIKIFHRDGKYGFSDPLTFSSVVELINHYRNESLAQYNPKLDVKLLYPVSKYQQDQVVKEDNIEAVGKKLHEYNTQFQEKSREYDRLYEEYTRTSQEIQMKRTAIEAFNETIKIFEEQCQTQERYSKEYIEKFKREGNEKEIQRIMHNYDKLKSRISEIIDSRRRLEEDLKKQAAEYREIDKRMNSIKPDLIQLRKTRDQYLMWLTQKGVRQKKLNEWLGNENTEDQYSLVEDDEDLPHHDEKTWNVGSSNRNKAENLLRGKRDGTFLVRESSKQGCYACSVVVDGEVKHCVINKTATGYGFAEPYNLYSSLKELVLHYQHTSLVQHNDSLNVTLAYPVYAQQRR

[8] = target: T7, VEGFR1 (Homo sapiens, UniProt P17948); test: Kinase profiler assay; assay type: biochemical; settings: 10 concentrations, 100 μM highest
T7 construct: purchased Millipore UK Limited (Dundee, UK) and Reaction Biology Corp. (Malvern, Pa.)

[9] = target: T8, C-Kit (Homo sapiens, UniProt P10721); test: Kinase profiler assay; assay type: biochemical; settings: 10 concentrations, 100 μM highest
T8 construct: purchased Millipore UK Limited (Dundee, UK) or Reaction Biology Corp. (Malvern, Pa.)

[10] = target: T9, Bmx (Homo sapiens, UniProt P51813); test: Kinase profiler assay; assay type: biochemical; settings: 10 concentrations, 100 μM highest
T9 construct: purchased Millipore UK Limited (Dundee, UK) or Reaction Biology Corp. (Malvern, Pa.)

[11] = target: T10, PAK1 (Homo sapiens, UniProt Q13153); test: Kinase profiler assay; assay type: biochemical; settings: 10 concentrations, 100 μM highest
T10 construct: purchased Millipore UK Limited (Dundee, UK) or Reaction Biology Corp. (Malvern, Pa.)

[12] = target: T11, CDK6/CyclinD1 (Homo sapiens, UniProt Q00534); test: Kinase profiler assay; assay type: biochemical; settings: 10 concentrations, 100 μM highest
T11 construct: purchased Millipore UK Limited (Dundee, UK) or Reaction Biology Corp. (Malvern, Pa.)
T11 sequence (Q00534 whole entry): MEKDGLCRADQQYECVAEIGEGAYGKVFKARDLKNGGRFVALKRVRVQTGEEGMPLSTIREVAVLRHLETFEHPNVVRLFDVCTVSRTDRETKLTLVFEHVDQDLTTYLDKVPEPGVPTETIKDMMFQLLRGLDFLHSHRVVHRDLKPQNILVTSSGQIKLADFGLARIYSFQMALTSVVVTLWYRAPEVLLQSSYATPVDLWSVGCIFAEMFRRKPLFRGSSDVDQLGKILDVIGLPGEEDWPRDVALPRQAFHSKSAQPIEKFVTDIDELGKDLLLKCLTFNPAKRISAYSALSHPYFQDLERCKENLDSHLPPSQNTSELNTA
T11 sequence (P24385 whole entry partner): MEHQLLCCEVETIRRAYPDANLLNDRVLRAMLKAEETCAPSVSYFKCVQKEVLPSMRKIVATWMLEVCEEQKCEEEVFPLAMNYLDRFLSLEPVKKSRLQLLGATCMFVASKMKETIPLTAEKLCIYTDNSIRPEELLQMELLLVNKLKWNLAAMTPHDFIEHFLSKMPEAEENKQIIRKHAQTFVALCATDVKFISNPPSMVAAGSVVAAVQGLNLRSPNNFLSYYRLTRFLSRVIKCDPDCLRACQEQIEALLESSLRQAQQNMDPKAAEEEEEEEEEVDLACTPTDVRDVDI

[13] = target: T12, AKT1 (Homo sapiens, UniProt P31749); test: Kinase profiler assay; assay type: biochemical; settings: 10 concentrations, 100 μM highest
T12 construct: purchased Millipore UK Limited (Dundee, UK) or Reaction Biology Corp. (Malvern, Pa.)

[14] = target: T13, Fyn (Homo sapiens, UniProt P06241); test: Kinase profiler assay; assay type: biochemical; settings: 10 concentrations, 100 μM highest
T13 construct: purchased Millipore UK Limited (Dundee, UK) or Reaction Biology Corp. (Malvern, Pa.)

[15] = target: T14, Met (Homo sapiens, UniProt P08581); test: Kinase profiler assay; assay type: biochemical; settings: 10 concentrations, 100 μM highest
T14 construct: purchased Millipore UK Limited (Dundee, UK) or Reaction Biology Corp. (Malvern, Pa.)

[16] = tested on: HPDE, HMEC, HH and WI-38 cells; test: Western blot, cleaved PARP and caspase-3 in normal cells; settings: LLL12 5 μM or 10 μM, 24 hours
[17] = target: T15, c-SRC (Homo sapiens, UniProt P12931); test: Kinase profiler assay; assay type: biochemical; settings: 10 concentrations, 100 μM highest
T15 construct: purchased Millipore UK Limited (Dundee, UK) or Reaction Biology Corp. (Malvern, Pa.)

[18] = target: T16, Syk (Homo sapiens, UniProt P43405); test: Kinase profiler assay; assay type: biochemical; settings: 10 concentrations, 100 μM highest
T16 construct: purchased Millipore UK Limited (Dundee, UK) or Reaction Biology Corp. (Malvern, Pa.)

[19] = target: T17, PKC-b (Homo sapiens, UniProt P05771); test: Kinase profiler assay; assay type: biochemical; settings: 10 concentrations, 100 μM highest
T17 construct: purchased Millipore UK Limited (Dundee, UK) or Reaction Biology Corp. (Malvern, Pa.)

[20] = target: T18, CHK1 (Homo sapiens, UniProt O14757); test: Kinase profiler assay; assay type: biochemical; settings: 10 concentrations, 100 μM highest
T18 construct: purchased Millipore UK Limited (Dundee, UK) or Reaction Biology Corp. (Malvern, Pa.)

[21] = target: T19, CDK4/CyclinD1 (Homo sapiens, UniProt P11802); test: Kinase profiler assay; assay type: biochemical; settings: 10 concentrations, 100 μM highest
T19 construct: purchased Millipore UK Limited (Dundee, UK) or Reaction Biology Corp. (Malvern, Pa.)

[22] = target: T20, JAK2 (Homo sapiens, UniProt O60674); test: Kinase profiler assay; assay type: biochemical; settings: 10 concentrations, 100 μM highest
T20 construct: purchased Millipore UK Limited (Dundee, UK) or Reaction Biology Corp. (Malvern, Pa.)

[23] = target: T21, Pyk2 (Homo sapiens, UniProt Q14289); test: Kinase profiler assay; assay type: biochemical; settings: 10 concentrations, 100 μM highest
T21 construct: purchased Millipore UK Limited (Dundee, UK) or Reaction Biology Corp. (Malvern, Pa.)

[24] = target: T22, PDK1 (Homo sapiens, UniProt O15530); test: Kinase profiler assay; assay type: biochemical; settings: 10 concentrations, 100 μM highest
T22 construct: purchased Millipore UK Limited (Dundee, UK) or Reaction Biology Corp. (Malvern, Pa.)

[25] = target: T23, TAK1 (Homo sapiens, UniProt O43318); test: Kinase profiler assay; assay type: biochemical; settings: 10 concentrations, 100 μM highest
T23 construct: purchased Millipore UK Limited (Dundee, UK) or Reaction Biology Corp. (Malvern, Pa.)

[26] = target: T24, Yes (Homo sapiens, UniProt P07947); test: Kinase profiler assay; assay type: biochemical; settings: 10 concentrations, 100 μM highest
T24 construct: purchased Millipore UK Limited (Dundee, UK) or Reaction Biology Corp. (Malvern, Pa.)
T24 sequence (P07947 whole entry): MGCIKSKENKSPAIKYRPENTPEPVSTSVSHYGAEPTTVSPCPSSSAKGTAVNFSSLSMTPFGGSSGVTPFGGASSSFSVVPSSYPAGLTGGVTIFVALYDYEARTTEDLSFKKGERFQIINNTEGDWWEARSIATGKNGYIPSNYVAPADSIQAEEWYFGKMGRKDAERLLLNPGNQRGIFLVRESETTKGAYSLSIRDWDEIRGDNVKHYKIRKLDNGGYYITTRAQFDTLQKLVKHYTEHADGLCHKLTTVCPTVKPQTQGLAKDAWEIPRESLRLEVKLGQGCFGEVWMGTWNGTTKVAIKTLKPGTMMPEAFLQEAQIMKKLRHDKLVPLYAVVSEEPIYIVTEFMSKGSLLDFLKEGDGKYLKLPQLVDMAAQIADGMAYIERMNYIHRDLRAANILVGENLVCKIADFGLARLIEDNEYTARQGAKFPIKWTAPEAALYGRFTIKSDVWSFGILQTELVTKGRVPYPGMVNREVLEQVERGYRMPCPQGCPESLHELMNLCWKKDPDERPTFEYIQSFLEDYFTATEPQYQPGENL

[27] = target: T25, EGFR (Homo sapiens, UniProt P00533); test: Kinase profiler assay; assay type: biochemical; settings: 10 concentrations, 100 μM highest
T25 construct: purchased Millipore UK Limited (Dundee, UK) or Reaction Biology Corp. (Malvern, Pa.)
T25 sequence (P00533 25-1210): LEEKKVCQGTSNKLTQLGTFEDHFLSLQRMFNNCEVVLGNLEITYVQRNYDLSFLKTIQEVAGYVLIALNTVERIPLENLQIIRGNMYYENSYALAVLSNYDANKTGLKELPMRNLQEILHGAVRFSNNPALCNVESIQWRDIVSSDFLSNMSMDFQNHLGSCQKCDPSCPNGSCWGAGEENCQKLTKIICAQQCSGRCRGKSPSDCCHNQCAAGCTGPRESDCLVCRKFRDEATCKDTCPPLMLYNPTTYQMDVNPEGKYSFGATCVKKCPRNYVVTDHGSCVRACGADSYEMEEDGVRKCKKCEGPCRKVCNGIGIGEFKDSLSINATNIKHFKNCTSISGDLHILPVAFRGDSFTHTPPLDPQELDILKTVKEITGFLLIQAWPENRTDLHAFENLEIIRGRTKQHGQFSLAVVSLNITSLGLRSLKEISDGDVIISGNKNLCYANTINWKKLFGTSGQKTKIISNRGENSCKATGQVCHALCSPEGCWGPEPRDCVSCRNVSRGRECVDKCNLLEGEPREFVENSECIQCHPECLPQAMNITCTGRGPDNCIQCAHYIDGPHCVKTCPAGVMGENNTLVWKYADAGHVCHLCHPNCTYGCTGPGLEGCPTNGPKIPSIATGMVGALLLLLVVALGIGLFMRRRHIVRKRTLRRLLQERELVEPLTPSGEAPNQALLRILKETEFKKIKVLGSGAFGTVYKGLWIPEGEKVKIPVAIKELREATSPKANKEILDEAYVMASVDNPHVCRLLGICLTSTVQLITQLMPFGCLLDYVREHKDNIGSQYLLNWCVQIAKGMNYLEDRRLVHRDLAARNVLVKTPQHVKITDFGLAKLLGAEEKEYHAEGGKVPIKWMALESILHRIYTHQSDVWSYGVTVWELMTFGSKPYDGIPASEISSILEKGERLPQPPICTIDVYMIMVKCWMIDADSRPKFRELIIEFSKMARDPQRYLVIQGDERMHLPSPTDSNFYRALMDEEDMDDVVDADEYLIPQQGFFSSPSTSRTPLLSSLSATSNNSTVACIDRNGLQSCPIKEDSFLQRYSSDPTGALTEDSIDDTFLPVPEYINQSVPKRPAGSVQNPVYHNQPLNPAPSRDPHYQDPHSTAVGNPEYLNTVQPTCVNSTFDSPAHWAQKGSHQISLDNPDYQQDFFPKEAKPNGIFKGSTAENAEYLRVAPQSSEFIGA

[28] = tested on: HPAC pancreatic cancer cells; test: MTT cell viability assay; assay type: cell-based, human; settings: 72 hours, 10% FBS, read-out: half-maximal inhibitory concentration (IC50), cell viability
Method: (§1) STAT3 activation is important for tumor cell proliferation and survival.
(§2) The cells were incubated at 37° C. for a period of 72 hours. 3-(4,5-Dimethylthiazolyl)-2,5-diphenyltetrazolium bromide (MTT) viability assay was done according to manufacturer's protocol (Roche Diagnostics, Mannheim, Germany). […] Half-maximal inhibitory concentrations (IC50) were determined using Sigma Plot 9.0 Software (Systat Software Inc., San Jose, Calif.).

[29] = tested on: U373 glioblastoma cells; test: MTT cell viability assay; assay type: cell-based, human; settings: 72 hours, 10% FBS, read-out: half-maximal inhibitory concentration (IC50), cell viability
Method: as §1, §2

[30] = tested on: U87 glioblastoma cells; test: MTT cell viability assay; assay type: cell-based, human; settings: 72 hours, 10% FBS, read-out: half-maximal inhibitory concentration (IC50), cell viability
Method: as §1, §2

[31] = tested on: MDA-MB-231 breast cancer cells; test: MTT cell viability assay; assay type: cell-based, human; settings: MDA-MB-231, MTT, 72 hours, 10% FBS, read-out: half-maximal inhibitory concentration (IC50), cell viability
Method: as §1, §2

[32] = tested on: SK-BR-3 breast cancer cells; test: MTT cell viability assay; assay type: cell-based, human; settings: SK-BR-3, MTT, 72 hours, 10% FBS, read-out: half-maximal inhibitory concentration (IC50), cell viability
Method: as §1, §2

[33] = tested on: PANC-1 pancreatic cancer cells; test: MTT cell viability assay; assay type: cell-based, human; settings: PANC-1, MTT, 72 hours, 10% FBS, read-out: half-maximal inhibitory concentration (IC50), cell viability
Method: as §1, §2

[34] = tested on: ALDH^− cells; test: Effects on ALDH- cells; assay type: cell-based, human
[35] = tested on: ALDH^+ subpopulation of MDA-MB-231, SUM159, and SK-BR-3 breast cancer cells; test: ALDEFLUOR assay, percentage of ALDH+ subpopulation; assay type: cell-based, human; settings: 10 μM, 24 hours
From the text: The ALDEFLUOR kit (StemCell Technologies) was used to isolate the population with high ALDH enzymatic activity as known. […] For each sample, an aliquot of cells was stained under identical conditions with […] diethylaminobenzaldehyde (DEAB), a specific ALDH inhibitor, as a ALDH^− control. Anti-human PE-CD24 and PE-Cy5-CD44 antibody (BioLegend) were used for CD44/CD24 identification and to separate ALDH^+/CD44^+/CD24^− and ALDH^−/CD44^+/CD24^+ cells when combine with ALDH staining. Analysis was performed using a FACStarPLUS (Becton Dickinion) flow cytometer.

[36] = tested on: ALDH^+ subpopulation of MDA-MB-231, SUM159, and SK-BR3 cells; test: MTT cell viability assay of ALDH+ cells; assay type: cell-based, human; settings: 1 to 10 μmol/L, 72 hours
Method: The ALDH^+ subpopulation of breast cancer cells was seeded in 96-well plates (3,000 cells/well) in triplicates in a serum-free mammary epithelial basal medium. […] MTT (Thiazolyl Blue Tetrazolium Bromide, Sigma-Aldrich) assay was used to determine the cell viability.

[37] = tested on: ALDH^+ subpopulation of SK-BR-3, MDA-MB-231, and SUM159; test: Tumorsphere culture of ALDH+ cells; assay type: cell-based, human; settings: 2.5-10 μmol/L, 10 to 15 days
Method: Tumorsphere culture was performed as previously described (4). ALDH^+ and ALDH^+/CD44^+/CD24^− cells were plated as single cells in ultra-low attachment six-well plates at a density of 50,000 viable cells/well. […] Tumorsphere growth was observed under a microscope 10 to 15 days later.

[38] = target: STAT3 phosphorylation in ALDH^+ subpopulation of MDA-MB-231, SUM159, and SK-BR-3 (Homo sapiens, UniProt P40763); test: Western blot of ALDH+ cells; assay type: cell-based; settings: LLL12 5 μmol/L, 24 hours
Method: ALDH^+ and ALDH^- subpopulations, or ALDH^+/CD44^+/CD24^- and ALDH^-/CD44^+/CD24^+ subpopulations of breast cancer cells were separated by flow cytometer. After sorting, ALDH^+ and ALDH^+/CD44^+/CD24^- stem cells were cultured in serum-free stem cell medium in ultra-low attachment six-well plates (Corning) to maintain cancer stem cell characteristics. ALDH^-, ALDH^-/CD44^+/CD24^+ cells and unseperated cells were cultured in regular medium and replaced with identical stem cell medium for three days before being harvested.

Structure (SMILES): NS(=O)(=O)c1cccc2c1C(=O)c1cccc(O)c1C2=O [LLL12]
- decrease in colony formation compared to the DMSO control [1]: over 95%
- IC50 [2]: > 100 µM
- IC50 [3]: > 100 µM
- IC50 [4]: > 100 µM
- IC50 [5]: > 100 µM
- IC50 [6]: > 100 µM
- IC50 [7]: > 100 µM
- IC50 [8]: > 100 µM
- IC50 [9]: > 100 µM
- IC50 [10]: > 100 µM
- IC50 [11]: > 100 µM
- IC50 [12]: > 100 µM
- IC50 [13]: > 100 µM
- IC50 [14]: > 100 µM
- IC50 [15]: > 100 µM
- cleaved PARP or caspase-3 in cells without elevated STAT3 phosphorylation [16]: did not induce cleaved PARP or caspase-3
- IC50 [17]: > 100 µM
- IC50 [18]: > 100 µM
- IC50 [19]: > 100 µM
- IC50 [20]: > 100 µM
- IC50 [21]: 77.9 µM
- IC50 [22]: > 100 µM
- IC50 [23]: > 100 µM
- IC50 [24]: > 100 µM
- IC50 [25]: > 100 µM
- IC50 [26]: > 100 µM
- IC50 [27]: > 100 µM

Structure (SMILES): Cc1ccc(S(=O)(=O)OCC(=O)Nc2ccc(C(=O)O)c(O)c2)cc1 [S3I-201]
- IC50 [28]: > 100 µM
- IC50 [29]: 52.5 µM
- IC50 [30]: 55.1 µM
- IC50 [31]: > 100 µM
- IC50 [32]: > 100 µM
- IC50 [33]: > 100 µM

Structure (SMILES): O=[N+]([O-])c1ccc2c(c1)S(=O)(=O)C=C2 [Stattic]
- effects on ALDH^− cells [34]: inhibitory effects
- ALDH^+ subpopulation percentage [35]: decreased the percentage of ALDH^+ subpopulation
- cell viability of the ALDH^+ subpopulation [36]: can inhibit cell viability
- tumorsphere forming capacity [37]: can inhibit tumorsphere forming capacity
- STAT3 phosphorylation in ALDH^+ cells [38]: reduces STAT3 phosphorylation

Structure (SMILES): C[C@H](NC(=O)/C(C#N)=C/c1cccc(Br)n1)c1ccccc1 [WP1066]
- IC50 ([28]; Homo sapiens): 2.52 µM
- IC50 ([29]; Homo sapiens, U373 MG): 5.16 µM
- IC50 ([31]; Homo sapiens): 7.48 µM
- IC50 ([32]; Homo sapiens): 3.31 µM
- IC50 ([33]; Homo sapiens): 5.12 µM

Source: patent US8883749B2, “Transcription factor inhibitors and related compositions, formulations and methods” (The Ohio State University, priority 2009, dated 2014)
